One series concerns the target T1, human TLR7 (Homo sapiens, UniProt Q9NYK1).
T1 sequence (Q9NYK1 27-1049): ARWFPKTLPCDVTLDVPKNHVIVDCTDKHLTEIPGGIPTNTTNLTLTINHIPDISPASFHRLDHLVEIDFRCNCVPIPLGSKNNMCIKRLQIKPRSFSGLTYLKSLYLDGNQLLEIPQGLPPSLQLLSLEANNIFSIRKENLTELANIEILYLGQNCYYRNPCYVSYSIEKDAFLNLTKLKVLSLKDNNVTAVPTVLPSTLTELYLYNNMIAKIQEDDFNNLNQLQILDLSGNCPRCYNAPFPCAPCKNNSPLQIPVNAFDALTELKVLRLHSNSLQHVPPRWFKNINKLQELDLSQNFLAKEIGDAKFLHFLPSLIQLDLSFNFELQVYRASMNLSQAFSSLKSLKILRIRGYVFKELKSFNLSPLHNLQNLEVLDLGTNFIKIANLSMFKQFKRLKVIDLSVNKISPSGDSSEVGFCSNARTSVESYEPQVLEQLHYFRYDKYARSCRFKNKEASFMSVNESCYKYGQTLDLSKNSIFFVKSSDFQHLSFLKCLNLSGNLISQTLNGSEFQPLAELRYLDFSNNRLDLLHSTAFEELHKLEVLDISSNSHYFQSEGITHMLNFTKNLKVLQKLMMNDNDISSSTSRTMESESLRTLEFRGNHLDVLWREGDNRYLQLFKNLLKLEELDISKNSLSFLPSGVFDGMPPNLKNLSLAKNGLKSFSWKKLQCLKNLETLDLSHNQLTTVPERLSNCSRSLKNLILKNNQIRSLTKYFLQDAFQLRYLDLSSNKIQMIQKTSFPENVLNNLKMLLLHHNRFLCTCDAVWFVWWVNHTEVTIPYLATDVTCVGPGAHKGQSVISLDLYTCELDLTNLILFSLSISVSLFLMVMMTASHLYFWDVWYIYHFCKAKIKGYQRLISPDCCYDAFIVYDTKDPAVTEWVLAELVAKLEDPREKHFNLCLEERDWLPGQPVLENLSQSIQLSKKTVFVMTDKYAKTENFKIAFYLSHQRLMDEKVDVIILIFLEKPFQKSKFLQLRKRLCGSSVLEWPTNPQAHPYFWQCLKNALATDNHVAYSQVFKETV
In words: HEK293-Blue-hTLR-7 cells assay (SEAP reporter). The note with it: for Ratio (EC50(prodrug)/EC50(active form)): EC50 of prodrug over EC50 of corresponding active form; for EC50: HEK293-Blue-hTLR-7 cells, SEAP reporter, 20 hrs, prodrug, read-out: HEK293-hTLR-7 EC50 (Prodrug). The series is classed as cell-based. An excerpt: HEK293-Blue-hTLR-7 Cells Assay:
A stable HEK293-Blue-hTLR-7 cell line was purchased from InvivoGen (Cat.#: hkb-htlr7, San Diego, Calif., USA). These cells were designed for studying the stimulation of human TLR7 by monitoring the activation of NF-κB. A SEAP (secreted embryonic alkaline phosphatase) reporter gene was placed under the control of the IFN-β minimal promoter fused to five NF-κB and AP-1-binding sites. The SEAP was induced by activating NF-κB and AP-1 via stimulating HEK-Blue hTLR7 cells with TLR7 ligands. Therefore the reporter expression was regulated by the NF-κB promoter upon stimulation of human TLR7 for 20 hrs. The cell culture supernatant SEAP reporter activity was determined using QUANTI-Blue™ kit (Cat.#: rep-qbl, Invivogen, San Diego, Calif., USA) at a wavelength of 640 nm, a detection medium that turns purple or blue in the presence of alkaline phosphatase.
HEK293-Blue-hTLR7 cells were incubated at a density of 250,000˜450,000 cells/mL in a volume of 180 μL in a 96-well plate in Dulbecco's Modified Eagle's medium (DMEM) containing 4.5 g/L glucose, 50 U/mL penicillin, […], […], 2 mM L-glutamine, 10% (V/V) heat-inactivated fetal bovine serum for 24 hrs. Then the HEK293-Blue-hTLR-7 cells were incubated with addition of 20 μL test compound in a serial dilution in the presence of final DMSO at 1% and perform incubation under 37° C. in a CO2 incubator for 20 hrs. Then 20 μL of the supernatant from each well was incubated with 180 μL Quanti-blue substrate solution at 37° C. for 2 hrs and the absorbance was read at 620˜655 nm using a spectrophotometer. The signalling pathway that TLR7 activation leads to downstream NF-κB activation has been widely accepted, and therefore similar reporter assay was also widely used for evaluating TLR7 agonist (Tsuneyasu Kaisho and Takashi Tanaka, Trends in Immunology, Volume 29, Issue 7, July 2008, […]; Hiroaki Hemmi et al, Nature Immunology 3, 196-200 (2002)).
The Compounds and Examples of the present invention were tested in HEK293-hTLR-7 assay for their TLR7 agonism activity as described herein and results are listed in Table 1. […] The calculated ratio of EC50(prodrug)/EC50(active form) were within the range from 32 to about 7600.

Another series is described as follows: LYSA solubility study. The series is classed as physicochemical. The note with it: for solubility thermodynamic: phosphate buffer, pH 6.5, aqueous buffer, thermodynamic from solid, 0.05M phosphate buffer pH 6.5, read-out: LYSA of Prodrugs; for LYSA of Prodrugs: aqueous solubility, 0.05M phosphate buffer pH 6.5. The method, then: LYSA study is used to determine the aqueous solubility of tested compounds. Samples were prepared in duplicate from 10 mM DMSO stock solution. After evaporation of DMSO with a centrifugal vacuum evaporator, the compounds were dissolved in 0.05M phosphate buffer (pH 6.5), stirred for one hour and shaken for two hours. After one night, the solutions were filtered using a microtiter filter plate. Then the filtrate and its 1/10 dilution were analyzed by HPLC-UV. […] The results were in μg/mL. In case the percentage of sample measured in solution after evaporation divided by the calculated maximum of sample amount was bigger than 80%, the solubility was reported as bigger than this value.

A short description of series [1]: Single dose PK study in male Wister-Han rats. Type of series: in vivo. The note with it: male, Wister-Han, rat, plasma, po, 5 mg/kg, 5 mg/kg oral dosing of active form. The method, then:
The single dose PK in Male Wister-Han Rats was performed to assess pharmacokinetic properties of tested compounds. Two groups of animals were dosed via Gavage (POE) of the respective compound. […] Blood samples were placed into tubes containing EDTA-K2 anticoagulant and centrifuged at 5000 rpm for 6 min at 4° C. to separate plasma from the samples. After centrifugation, the resulting plasma was transferred to clean tubes for bioanalysis of both prodrug and active form on LC/MS/MS. In the groups that prodrug were dosed, the concentration of prodrugs in the plasma samples was under the detection limit. The “tested compound” in Table 8 was used as the internal standard for testing the metabolite (active form) of “dose compound” in vivo. The pharmacokinetic parameters were calculated using non-compartmental module of WinNonlin® Professional 6.2. The peak concentration (Cmax) was recorded directly from experimental observations. The area under the plasma concentration-time curve (AUC0-t) was calculated using the linear trapezoidal rule up to the last detectable concentration. Cmax and AUC0-last are two critical PK parameters related to the in vivo efficacy of the tested compound. Compounds with higher Cmax and AUC0-last will lead to the better in vivo efficacy.

Experimental findings from patent US10233184B2, “7-substituted sulfonimidoylpurinone compounds and derivatives for the treatment and prophylaxis of virus infection” (Hoffmann-La Roche Inc., priority 2016, dated 2019) are described below.

Converted amounts (≈) assume the structure as drawn.

For the molecule `CCCS(=N)(=O)c1nc(N)c2c(n1)n(Cc1ccccc1)c(=O)n2C(=O)N(C)CCOC(=O)N(CC)CC` (stereo not drawn) [Example 32, 2-[[6-Amino-9-benzyl-8-oxo-2-(propylsulfonimidoyl)purine-7-carbonyl]-methyl-amino]ethyl N,N-diethylcarbamate], at human TLR7, the “Ratio (EC50(prodrug)/EC50(active form))” value is on record as 346.2 and the EC50 (commonly the concentration giving half of the maximal effect) was found to be 22.5 µM. Further, the solubility thermodynamic in “LYSA solubility study” is 125 µg/mL (≈ 229 µM).
Regarding `CCCS(=N)(=O)c1nc(N)c2c(n1)n(Cc1ccccc1)c(=O)n2C(=O)N(C)CCOC` (single isomer, unassigned) [Example 2-B], at human TLR7, the “Ratio (EC50(prodrug)/EC50(active form))” value is recorded as 65.7 and the half-maximal effective concentration (EC50) was determined as 4.4 µM. In addition, in the series “LYSA solubility study”, the “LYSA of Prodrugs” value was over 590 µg/mL.
With `CCCS(=N)(=O)c1nc(N)c2c(n1)n(Cc1ccccc1)c(=O)n2C(=O)N(C)CCN(C)C(=O)OCC` (stereo not drawn) [Example 28, Ethyl N-[2-[[6-amino-9-benzyl-8-oxo-2-(propylsulfonimidoyl)purine-7-carbonyl]-methyl-amino]ethyl]-N-methyl-carbamate], at human TLR7, the “Ratio (EC50(prodrug)/EC50(active form))” value stood at 106.2 and the EC50 came to 6.9 µM. Further, the solubility thermodynamic in “LYSA solubility study” came out at 695 µg/mL (≈ 1300 µM).
As for `CCN(C)C(=O)n1c(=O)n(Cc2ccc(Cl)cc2)c2nc([S@@](=N)(=O)CC)nc(N)c21` (stereo in doubt) [Example 42-B, 6-Amino-9-[(4-chlorophenyl)methyl]-N-ethyl-2-[S(R)-ethylsulfonimidoyl]-N-methyl-8-oxo-purine-7-carboxamide], at human TLR7, the “Ratio (EC50(prodrug)/EC50(active form))” value amounted to 578.8 and the EC50 is 49.2 µM. The “LYSA of Prodrugs” value in the series “LYSA solubility study” turned out to be 335 µg/mL.
On to `CCCS(=N)(=O)c1nc(N)c2c(n1)n(Cc1ccccc1)c(=O)n2C(=O)N(C)CCN(C)C(=O)OC(C)(C)C` (stereo not drawn) [Example 27, tert-Butyl N-[2-[[6-amino-9-benzyl-8-oxo-2-(propylsulfonimidoyl)purine-7-carbonyl]-methyl-amino]ethyl]-N-methyl-carbamate], for which the EC50 at human TLR7 turned out to be 31.7 µM. For the same molecule, the solubility thermodynamic in the series “LYSA solubility study” is over 380 µg/mL.
The like results for `CCCN(C)C(=O)n1c(=O)n(Cc2ccc(F)cc2)c2nc([S@@](=N)(=O)CC)nc(N)c21` (single isomer, unassigned) [Example 45-B] were, in that order, over 1000 µM and 420 µg/mL (≈ 934 µM).
Take `CCCN(C)C(=O)n1c(=O)n(Cc2ccc(C)cc2)c2nc([S@@](=N)(=O)CCC)nc(N)c21` (stereo in doubt) [Example 36-B, 6-amino-N-methyl-8-oxo-N-propyl-2[S(R)-propylsulfonimidoyl]-9-(p-tolylmethyl)purine-7-carboxamide]: the “LYSA of Prodrugs” value in the series “LYSA solubility study” amounted to 209 µg/mL.
Take `CCCS(=N)(=O)c1nc(N)c2c(n1)n(Cc1ccccc1)c(=O)n2C(=O)N(C)[C@@H](C)C(=O)OCC` (stereo partly drawn) [Example 17, Ethyl(2S)-2-[[6-amino-9-benzyl-8-oxo-2-(propylsulfonimidoyl)purine-7-carbonyl]-methyl-amino]propanoate]: in “LYSA solubility study”, the solubility thermodynamic amounted to 190 µg/mL (≈ 377 µM).
For the molecule `CCCS(=N)(=O)c1nc(N)c2c(n1)n(Cc1ccccc1)c(=O)n2C(=O)N(CCOC)CCOC` (stereo not drawn) [Example 8, 6-Amino-9-benzyl-N,N-bis(2-methoxyethyl)-8-oxo-2-(propylsulfonimidoyl)purine-7-carboxamide], on human TLR7, the “Ratio (EC50(prodrug)/EC50(active form))” value is listed as 32.3 and the EC50 was determined as 2.1 µM. The solubility thermodynamic in the series “LYSA solubility study” came out at 620 µg/mL (≈ 1230 µM).
The like results for `CCCS(=N)(=O)c1nc(N)c2c(n1)n(Cc1ccccc1)c(=O)n2C(=O)N1CCC(N2CCCCC2)CC1` (stereo not drawn) [Example 4, 6-Amino-9-benzyl-7-[4-(1-piperidyl)piperidine-1-carbonyl]-2-(propylsulfonimidoyl)purin-8-one] were, in that order, 353.8, 23 µM and 695 µg/mL (≈ 1290 µM).
Consider `CCCN(C)C(=O)n1c(=O)n(Cc2ccc(F)cc2)c2nc(S(=N)(=O)CC)nc(N)c21` (stereo not drawn) [Example 45, 6-amino-2-(ethylsulfonimidoyl)-9-[(4-fluorophenyl)methyl]-N-methyl-8-oxo-N-propyl-purine-7-carboxamide], for which the solubility thermodynamic in “LYSA solubility study” came out at 172 µg/mL (≈ 383 µM).
For the molecule `CCS(=O)(=O)c1nc(N)c2[nH]c(=O)n(Cc3ccc(Cl)cc3)c2n1` [Example S-2, reference compound], in series [1], the exposure AUC(0-t) (in general, the area under the concentration-time curve up to a stated or last time point) is 0.748 µM·h; the peak level (Cmax) was 52.7 nM; the concentration at 0.25 h came out at 9.49 nM; the concentration at 0.5 h came out at 16.7 nM. In series [1], this molecule returned a concentration at 1 h of 19.3 nM, a concentration at 2 h of 24.9 nM, a concentration at 4 h of 47.5 nM and a concentration at 8 h of 52.7 nM. Moreover, in series [1] (24 h), the concentration at 24 h was 4.9 nM.
Regarding `CCS(=O)(=O)c1nc(N)c2[nH]c(=O)n(Cc3ccc(C)cc3)c2n1` [Example S-3, reference compound], in series [1], the AUC(0-t) worked out at 0.095 µM·h, the highest level (Cmax) was 11.5 nM, the concentration at 0.25 h was 8.89 nM and the concentration at 0.5 h was found to be 9.99 nM. In series [1], this molecule gave a concentration at 1 h of 10.2 nM, a concentration at 2 h of 8.4 nM, a concentration at 4 h of 11.5 nM and a concentration at 8 h of 8.17 nM.
